Measured values reported in US20220340679A1, “CO-INHIBITION OF CD47/SIRPalpha BINDING AND NEDD8-ACTIVATING ENZYME E1 REGULATORY SUBUNIT FOR THE TREATMENT OF CANCER” (Gilead Sciences, Inc., priority 2021, published 2022).
Entries after “also recorded” stand apart in the source; their conditions may differ.

B1: magrolimab: anti-CD47 antibody (antibody, chains of the INN, looked up, V domains shown)
VH: QVQLVQSGAEVKKPGASVKVSCKASGYTFTNYNMHWVRQAPGQRLEWMGTIYPGNDDTSYNQKFKDRVTITADTSASTAYMELSSLRSEDTAVYYCARGGYRAMDYWGQGTLVTVSS
VL: DIVMTQSPLSLPVTPGEPASISCRSSQSIVYSNGNTYLGWYLQKPGQSPQLLIYKVSNRFSGVPDRFSGSGSGTDFTLKISRVEAEDVGVYYCFQGSHVPYTFGQGTKLEIK

System: U937 AML cells
Assay: AML xenograft model: luciferase-expressing U937 tumor cells in NSG mice, in-vivo bioluminescent imaging
Settings: U937 i.v., azacitidine 7.5 mg/kg QD 5 days i.p., NAE1 SMI 120 mg/kg QD 5 days on, 2 days rest, magrolimab 250 μg QD
Experimental: FIG. 3 illustrates that NAE1 inhibition in combination with CD47 blockade elicits robust anti-tumor efficacy in an AML xenograft model. Luciferase-expressing U937 tumor cell were transferred to NSG mice by intravenous injection. On day 5, mice were randomized into cohorts and treated with Vehicle [20% (2-Hydroxypropyl)-β-cyclodextrin], azacitidine (7.5 mg/kg QD for 5 days), or NAE1 small molecule inhibitor (120 mg/kg QD for 5 days followed by 2 days/rest) by intraperitoneal injection. Magrolimab was administered 48 hours post chemo treatment (250 μg QD for the entire study) as a single agent or in combination. Tumor growth was monitored using in-vivo bioluminescent imaging and the resulting signal was reported as total flux.
To evaluate, if the combination of NAE1 SMI with magrolimab could increase the elimination of leukemia cells in vivo, a treatment study was conducted in mice transplanted with U937 AML cells. In addition to NAE1 SMI, azacitidine, a hypomethylating and chemotherapeutic agent indicated for AML was also included into the study, since azacitidine had previously been established to enhance elimination of AML cells when combined with magrolimab (Chao, et al., Front Oncol (2020) 9:1380). […]

Molecule | tumor growth / cancer remission (result in words)
Nc1ncn([C@@H]2O[C@H](CO)[C@@H](O)[C@H]2O)c(=O)n1 [azacitidine, 5-azacytidine, reference compound] | did initially slow tumor growth compared to vehicle control but failed to stop cancer progression
B1 | did initially slow tumor growth compared to vehicle control but failed to stop cancer progression; also recorded: modest
